Converted amounts (≈) assume the structure as drawn.
Legend:
[1] = In vitro diffusion and release from poloxamer gel embedded in an agar disc (HPLC); type: physicochemical; settings: 100 microliters of poloxamer formulation embedded in an agar disc
Method: 100 microliters of poloxamer formulation were embedded in an agar disc. The release of loaded compound into media around the agar structure is measured. The assays mimic a disc containing a poloxamer injection. The mass of antibiotic released over 72 h was determined using high-performance liquid chromatography (HPLC).

S. aureus [2] = assay: Sheep model of S. aureus intradiscal infection, therapeutic dosing; type: in vivo; settings: for discs sterilized: one hour post infection
Excerpt: A sheep model of S. aureus intradiscal infection has been developed to test the in vivo efficacy of antibiotic formulations. Male Charollais or Suffolk cross sheep, approximately 35-40 kg+ at the start of the study were housed according to Home Office guidelines under the Animals (Scientific Procedures) Act 1986 and acclimatised for at least 7 days with straw bedding and access to water. They were fed a Sheep concentrate diet without added antibiotics with additional forage (hay/straw) provided.
The bacterial inoculum (ATCC 29213) is prepared from frozen glycerol/phosphate-buffered saline stock at 2.5×10^6 CFU/ml by dilution to 2×10^4 CFU/ml:
In a therapeutic model, each sheep is anesthetised and given four 0.05 ml (target volume) intradiscal Injections at L1/L2, L2/L3, L3/L4 and L4/5 of S. aureus inoculum (1×10^3 cells/disc), one injection per disc.
(§1) Approximately 1 hour, or at another selected time, after the first injection, each sheep is given a second injection of the test formulation or control formulation. Each disc that was previously successfully injected with bacteria is given a 0.1 ml (target volume) intradiscal injection. As part of the anaesthesia the animal is given analgesics (intra-muscular) in the form of meloxicam at the recommended dosage. This analgesic may be repeated if considered necessary by the named veterinary surgeon. In a prophylactic model, the order of administrations is reversed such that the first injection is a formulation of antibiotic or control and the second injection contains the bacterial inoculum. The time between administration of the antibiotic and bacteria may be hours, days, weeks or months.
A single 20G 3.5″ spinal needle is positioned directly into the edge of the nucleus pulposus of each disc. Following confirmation of positioning of the needles a second 25G 4.69″ needle primed with the dose solution is inserted into the first needle and the tip placed into the middle of the nucleus pulposus. Following confirmation of positioning of the second needles each disc is injected with the bacteria. The inner needles will then be removed. Just prior to the 1 hour post-dose bacteria time-point a new 25G 4.69″ needle, primed with the dose solution, is inserted into the 20G 3.5″ and positioned into the middle of the nucleus pulposus. The second treatment is dose given via this needle, 1 hour post the first dose.
Bacterial infection: A single 20G 3.5″ spinal needle is positioned directly into the edge of the nucleus pulposus of each disc. Following confirmation of positioning of the needles a second 25G 4.69″ needle primed with the dose solution is inserted into the first needle and the tip placed into the middle of the nucleus pulposus. Following confirmation of positioning of the second needles each disc is injected with the bacteria. The needles will then be removed. The animals are repositioned to access the other side of the spine.
Injection of formulation: A second 20G 3.5″ spinal needle is positioned directly into the edge of the nucleus pulposus on the opposite side to the first injection of each disc. Just prior to time-point for administration a new 25G 4.69″ needle, primed with the dose solution, is inserted into the 20G 3.5″ and positioned into the middle of the nucleus pulposus. The second treatment is dose given via this needle.
At set time-points post-dose the sheep is killed. The injected vertebrae discs are dissected out and the nucleus pulposus from each disc is removed. In addition, an extra untreated disc is sampled to provide control tissue. The disc is removed after all of the treated discs for the particular animal with care to ensure no contamination between control and treated samples.
The sheep intradiscal infection model of Example 1 was used to evaluate the in vivo efficacy of therapeutically dosed vancomycin.

S. aureus [3] = assay: Sheep model of S. aureus intradiscal infection, prophylactic dosing; type: in vivo; settings: Example 3; 5 mg/disc on day 0, discreet infection with 10^3 S. aureus per disc on day 3, harvest 24 h after infection
Method: as §1
The order of the injections may be reversed such that the first injection is a formulation of antibiotic and the second injection contains the bacterial inoculum. The time between administration of the antibiotic and bacteria may be hours, days, weeks or months. The second injection may be co-localised or discreet e.g. injected on the same side of the disc as the first injection or injected on the other side of the disc to the first injection respectively.
Discs were treated with vancomycin (5 mg/disc) on day 0 and on day 3 were discreetly infected with 10^3 S. aureus per disc. […]

[4] = test system: MRSA (methicillin resistant Staphylococcus aureus); settings: formulated with poloxamer 407, sustained local delivery to the infected ear; cited from earlier work
Gram-positive bacteria = settings: cited from earlier work

| Compound | input antibiotic accounted for (released) after 72 h [1] [%] | discs sterilized (S. aureus [2]; Example 2, discreet dosing, 5 mg vancomycin/disc) | discs sterilized (S. aureus [2]; Example 2, discreet dosing, 20 mg vancomycin/disc) | reduction in average bacterial burden (S. aureus [2]; Example 2, discrete dosing groups) [log10] | discs sterilized (S. aureus [2]; Example 2, vancomycin in Omnipaque with 0.5% hyaluronic acid, co-localised dosing, within 24 h) | sterile discs (S. aureus [2]; Example 9, discrete dosing) | reduction in average disc bacterial burden (S. aureus [2]; Example 9, discrete dosing from the other side of the disc) | average reduction in bacterial burden (S. aureus [3]) [log10] | effect on MRSA otitis media [4] | MIC (Gram-positive bacteria) [µg/mL] |
| --- | --- | --- | --- | --- | --- | --- | --- | --- | --- | --- |
| CN[C@H](CC(C)C)C(=O)N[C@H]1C(=O)N[C@@H](CC(N)=O)C(=O)N[C@H]2C(=O)N[C@H]3C(=O)N[C@H](C(=O)N[C@H](C(=O)O)c4cc(O)cc(O)c4-c4cc3ccc4O)[C@H](O)c3ccc(c(Cl)c3)Oc3cc2cc(c3O[C@@H]2O[C@H](CO)[C@@H](O)[C@H](O)[C@H]2O[C@H]2C[C@](C)(N)[C@H](O)[C@H](C)O2)Oc2ccc(cc2Cl)[C@H]1O [Vancomycin] | 92 | 5 of 7 | 3 of 7 | ≤ 3 | all the discs were effectively sterilized | 3 of 8 | did not significantly reduce average bacterial disc burden | > 3 | completely cures the otitis media caused by MRSA infection | – |
| CC(=O)NC[C@H]1CN(c2ccc(N3CCOCC3)c(F)c2)C(=O)O1 [Linezolid] | 57 | – | – | – | – | – | – | – | – | 4 (≈ 11.9 µM) |

Source: patent publication US12161750B2, “Antibiotic formulations for lower back pain” (Persica Pharmaceuticals Ltd., priority 2016, dated 2024)
